This is an account of results in patent US11584755B2 (IDEAYA BIOSCIENCES, INC., priority 2017, dated 2023).

The target of one assay is hFEN1 (Homo sapiens (Human), UniProt P39748). Put plainly: Enzymatic IC50 assay, FAM-labeled DNA oligomer substrate, fluorescence intensity (FEN1). The following applies: hFEN1 70 pM, substrate 100 nM, reaction time 20 minutes, 23° C. It counts as biochemical. The protocol:
(§1) FEN1, EXO1 or XPG enzyme was incubated with compound or vehicle (DMSO) and the FAM-labeled DNA oligomer substrate in a microtiter plate. The stop buffer contains EDTA to stop the enzymatic reaction. The plate is read for fluorescence intensity. The high control (DMSO) with high fluorescence intensity represents no inhibition of enzymatic reaction while the low control (10 μM) with low fluorescence intensity represents full inhibition of enzymatic reaction.
(§2) • FEN1 • hFEN1: 70 pM • Substrate: 100 nM • Reaction time: 20 minutes • EXO1 • hEXO1: 6 nM, Isoforml • Substrate: 30 nM • Reaction time: 60 minutes • XPG • hXPG: 100 nM • Substrate: 100 nM • Reaction time: 120 minutes
(§3) Annealing Buffer: 50 mM Tris-HCl, 50 mM NaCl, 1 mM DTT Assay buffer: 50 mM Tris-HCl pH 8.0, 10 mM MgCl2, 0.01% BSA, 1 mM DTT Stop buffer: 50 mM EDTA in assay buffer Temperature: 23° C. Total volume: 40 μl Controls: • 0% inhibition control: DMSO • 100% inhibition control: 10 μM (final) 5-chloro-3-hydroxy-1,3-dihydroquinazoline-2,4-dione Enzyme Reaction and Detection: • 1. Prepare 25 μM intermediate stock of the substrate by diluting SEQ ID NO:1, SEQ ID NO:2, and SEQ ID NO:3 in annealing buffer, in a PCR tube. • 2. Place the PCR tube on a heat block, heat at 95° C. for 3 minutes, then drop in 0.2° C. increments over 2 minutes, stopping at 25° C. • 3. Remove the tube and let the tube cool at room temperature. • 4. Transfer 10 μL of 3× final concentration test compounds or DMSO to the appropriate wells of a microtiter plate. • 5. Transfer 10 μL of 3× final concentration enzyme in assay buffer or assay buffer alone to the appropriate wells. • 6. Incubate the plate at room temperature for 15 minutes. • 7. Transfer 10 μL of 3× substrate in assay buffer to all the test wells. • 8. Incubate the plate at room temperature for prescribed reaction time. • 9. Centrifuge the plate at 1000 rpm for 1 minute. • 10. Transfer 10 μL of stop buffer to all the test wells. • 11. Centrifuge the plate at 1000 rpm for 1 minute. • 12. Read the plate on a plate reader.

Another assay has as its target hEXO1, Isoform1 (Homo sapiens (Human), UniProt Q9UQ84). Briefly: Enzymatic IC50 assay, FAM-labeled DNA oligomer substrate, fluorescence intensity (EXO1). Type of assay: biochemical. The following applies: hEXO1 6 nM, substrate 30 nM, reaction time 60 minutes, 23° C. The protocol: as §1, §2, §3

Usually IC50 stands for the concentration that inhibits the measured activity by half. Low readings indicate greater potency in that assay, high ones weaker potency in that assay.

Structures are written as SMILES.

hFEN1, sequence (P39748 whole entry): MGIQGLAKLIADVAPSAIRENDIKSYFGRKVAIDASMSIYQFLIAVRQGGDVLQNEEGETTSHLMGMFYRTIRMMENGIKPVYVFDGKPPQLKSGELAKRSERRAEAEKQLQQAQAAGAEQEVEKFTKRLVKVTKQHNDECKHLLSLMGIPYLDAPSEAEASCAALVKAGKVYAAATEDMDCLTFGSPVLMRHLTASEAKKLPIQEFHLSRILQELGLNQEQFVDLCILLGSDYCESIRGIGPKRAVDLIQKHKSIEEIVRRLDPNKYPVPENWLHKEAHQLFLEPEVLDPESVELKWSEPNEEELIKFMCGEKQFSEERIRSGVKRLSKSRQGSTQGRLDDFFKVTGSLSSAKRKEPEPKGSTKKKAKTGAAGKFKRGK
hEXO1, Isoform1, sequence (Q9UQ84 whole entry, canonical isoform): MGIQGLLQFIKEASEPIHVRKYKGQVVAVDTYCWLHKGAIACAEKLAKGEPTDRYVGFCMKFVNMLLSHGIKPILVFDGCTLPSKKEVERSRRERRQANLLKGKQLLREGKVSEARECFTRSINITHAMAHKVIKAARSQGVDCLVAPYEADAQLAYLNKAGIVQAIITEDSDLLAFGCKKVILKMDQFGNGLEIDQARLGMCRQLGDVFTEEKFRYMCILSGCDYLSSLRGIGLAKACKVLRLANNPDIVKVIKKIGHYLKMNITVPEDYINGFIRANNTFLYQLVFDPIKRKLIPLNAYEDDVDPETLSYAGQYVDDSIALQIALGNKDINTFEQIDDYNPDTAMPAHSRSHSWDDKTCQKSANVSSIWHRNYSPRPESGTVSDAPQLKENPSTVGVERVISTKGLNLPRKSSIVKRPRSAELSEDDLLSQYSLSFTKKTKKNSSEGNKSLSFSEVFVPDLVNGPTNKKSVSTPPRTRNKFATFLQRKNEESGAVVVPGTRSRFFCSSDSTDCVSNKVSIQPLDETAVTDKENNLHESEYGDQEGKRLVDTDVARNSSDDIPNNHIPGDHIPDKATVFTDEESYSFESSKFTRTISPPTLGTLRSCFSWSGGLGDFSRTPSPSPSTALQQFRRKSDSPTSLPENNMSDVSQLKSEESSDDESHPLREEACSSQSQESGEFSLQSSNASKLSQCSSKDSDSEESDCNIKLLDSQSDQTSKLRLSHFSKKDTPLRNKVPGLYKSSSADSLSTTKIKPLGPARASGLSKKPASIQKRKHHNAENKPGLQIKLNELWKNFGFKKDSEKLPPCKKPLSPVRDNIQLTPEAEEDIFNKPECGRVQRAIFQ

As for `O=C(O)c1c(O)c(=O)n(Cc2cccc([N+](=O)[O-])c2)c2ccsc12` [Example 6, 6-hydroxy-4-[(3-nitrophenyl)methyl]-5-oxo-thieno[3,2-b]pyridine-7-carboxylic acid], the IC50 on hFEN1 is 250 to 750 nM; on hEXO1, Isoform1, 2250 to 10000 nM. Take `CC(=O)N1CCC(Cn2c(=O)c(O)c(C(=O)O)c3sccc32)CC1` [Example 9, 4-[(1-acetyl-4-piperidyl)methyl]-6-hydroxy-5-oxo-thieno[3,2-b]pyridine-7-carboxylic acid]: the IC50 was in the range of 2250 to 10000 nM on hFEN1 and 2250 to 10000 nM against hEXO1, Isoform1. On to `CS(=O)(=O)Nc1ccc(-c2ncc(Cn3c(=O)c(O)c(C(=O)O)c4sccc43)s2)cc1` [Example 167, 6-hydroxy-4-({2-[4-(methylsulfonamido)phenyl]thiazol-5-yl}methyl)-5-oxo-4,5-dihydrothieno[3,2-b]pyridine-7-carboxylic acid], for which the IC50 on hFEN1 is less than 200 nM; against hEXO1, Isoform1, 750 to 2250 nM. As to `O=C(O)c1c(O)c(=O)n(Cc2cccc3nonc23)c2ccsc12` [Example 72, 4-(benzo[c][1,2,5]oxadiazol-4-ylmethyl)-6-hydroxy-5-oxo-4,5-dihydrothieno[3,2-b]pyridine-7-carboxylic acid], the IC50 was in the range of 2250 to 10000 nM on hFEN1 and 2250 to 10000 nM against hEXO1, Isoform1. As for `O=C(O)Cn1cc(Cn2c(=O)c(O)c(C(=O)O)c3sccc32)cn1` [Example 163, 4-{[1-(carboxymethyl)-1H-pyrazol-4-yl]methyl}-6-hydroxy-5-oxo-4,5-dihydrothieno[3,2-b]pyridine-7-carboxylic acid], the IC50 at hFEN1 was less than 200 nM; at hEXO1, Isoform1, 2250 to 10000 nM. The corresponding values for `CCOC(=O)c1c(O)c(=O)n(Cc2ccc(N)cc2)c2ccsc12` [Example 41, ethyl 4-(4-aminobenzyl)-6-hydroxy-5-oxo-4,5-dihydrothieno[3,2-b]pyridine-7-carboxylate] are 250 to 750 nM and 2250 to 10000 nM. Take `CS(=O)(=O)c1ccc(-c2ncc(Cn3c(=O)c(O)c(C(=O)O)c4sccc43)s2)cc1` [Example 166, 6-hydroxy-4-({2-[4-(methylsulfonyl)phenyl)thiazol-5-yl)methyl)-5-oxo-4,5-dihydrothieno[3,2-b]pyridine-7-carboxylic acid]: the concentration for half-maximal inhibition (IC50) against hFEN1 is 250 to 750 nM; at hEXO1, Isoform1, 250 to 750 nM. Turning to `Nc1ccc(Cn2c(=O)c(O)c(C(=O)O)c3sccc32)cn1` [Example 97, 4-[(6-aminopyridin-3-yl)methyl]-6-hydroxy-5-oxo-4,5-dihydrothieno[3,2-b]pyridine-7-carboxylic acid], the IC50 against hFEN1 is less than 200 nM; at hEXO1, Isoform1, 2250 to 10000 nM.

Consider `O=C(O)c1c(O)c(=O)n(Cc2cnc3c(-c4ccncc4)cccn23)c2ccsc12` [Example 31, 6-hydroxy-5-oxo-4-{[8-(pyridin-4-yl)imidazo[1,2-a]pyridin-3-yl]methyl}-4,5-dihydrothieno[3,2-b]pyridine-7-carboxylic acid], for which the IC50 was 2250 to 10000 nM against hFEN1 and 2250 to 10000 nM on hEXO1, Isoform1. For `Cc1nn(C)cc1Cn1c(=O)c(O)c(C(=O)O)c2sccc21` [Example 162, 4-[(1,3-dimethyl-1H-pyrazol-4-yl)methyl]-6-hydroxy-5-oxo-4,5-dihydrothieno[3,2-b]pyridine-7-carboxylic acid], the half-maximal inhibitory concentration (IC50) is 750 to 2250 nM on hFEN1 and 2250 to 10000 nM on hEXO1, Isoform1. `COc1ccc(Cn2c(=O)c(O)c(C(=O)O)c3sccc32)cc1Cl` [Example 70, 4-(3-chloro-4-methoxybenzyl)-6-hydroxy-5-oxo-4,5-dihydrothieno[3,2-b]pyridine-7-carboxylic acid]: the IC50 is less than 200 nM against hFEN1 and 750 to 2250 nM on hEXO1, Isoform1. For the molecule `Cc1c(Cn2c(=O)c(O)c(C(=O)O)c3sccc32)cnn1C` [Example 159, 4-[(1,5-dimethyl-1H-pyrazol-4-yl)methyl]-6-hydroxy-5-oxo-4,5-dihydrothieno[3,2-b]pyridine-7-carboxylic acid], the concentration for half-maximal inhibition (IC50) at hEXO1, Isoform1 is 2250 to 10000 nM. On to `COc1ccc(-n2cc(Cn3c(=O)c(O)c(C(=O)O)c4sccc43)c(Br)n2)cc1` [Example 161, 4-{[3-bromo-1-(4-methoxyphenyl)-1H-pyrazol-4-yl]methyl}-6-hydroxy-5-oxo-4,5-dihydrothieno[3,2-b]pyridine-7-carboxylic acid], for which the IC50 against hFEN1 fell in the range of 250 to 750 nM; at hEXO1, Isoform1, 750 to 2250 nM.

Regarding `COc1ccc(Cn2c(=O)c(O)c(C(=O)O)c3sccc32)cc1NC(C)=O` [Example 89, 4-(3-acetamido-4-methoxybenzyl)-6-hydroxy-5-oxo-4,5-dihydrothieno[3,2-b]pyridine-7-carboxylic acid], the IC50 on hFEN1 lay within 250 to 750 nM. As to `CS(=O)(=O)Nc1ccccc1-n1cc(Cn2c(=O)c(O)c(C(=O)O)c3sccc32)cn1` [Example 108, 6-hydroxy-4-{[1-(2-(methylsulfonamido)phenyl]-1H-pyrazol-4-yl}methyl)-5-oxo-4,5-dihydrothieno[3,2-b]pyridine-7-carboxylic acid], on hFEN1, the IC50 lay within 250 to 750 nM. At hFEN1, `CCOC(=O)c1c(O)c(=O)n(Cc2ccc(OC)cc2)c2ccsc12` [Example 33, ethyl 6-hydroxy-4-(4-methoxybenzyl)-5-oxo-4,5-dihydrothieno[3,2-b]pyridine-7-carboxylate] registered an IC50 of 2250 to 10000 nM. In turn, `O=C(O)c1c(O)c(=O)n(Cc2cnn(CC3CCS(=O)(=O)CC3)c2)c2ccsc12` [Example 145] had a half-maximal inhibitory concentration (IC50) against hFEN1 of 250 to 750 nM. With `O=C(O)c1c(O)c(=O)n(Cc2cnn(CC(F)(F)F)c2)c2ccsc12` [Example 137, 6-hydroxy-5-oxo-4-{[1-(2,2,2-trifluoroethyl)-1H-pyrazol-4-yl]methyl}-4,5-dihydrothieno[3,2-b]pyridine-7-carboxylic acid], the IC50 against hFEN1 was less than 200 nM. The molecule `O=C(O)c1c(O)c(=O)n(Cc2cccc(F)c2)c2ccsc12` [Example 11, 4-(3-fluorobenzyl)-6-hydroxy-5-oxo-4,5-dihydrothieno[3,2-b]pyridine-7-carboxylic acid] registered a concentration for half-maximal inhibition (IC50) against hFEN1 of 250 to 750 nM. Take `O=C(O)c1c(O)c(=O)n(Cc2cnn(Cc3cn4cccnc4n3)c2)c2ccsc12` [Example 139, 6-hydroxy-4-{[1-(imidazo[1,2-a]pyrimidin-2-ylmethyl)-1H-pyrazol-4-yl]methyl}-5-oxo-4,5-dihydrothieno[3,2-b]pyridine-7-carboxylic acid]: the IC50 at hFEN1 is less than 200 nM. For `CC(=O)Nc1ccccc1-n1cc(Cn2c(=O)c(O)c(C(=O)O)c3sccc32)cn1` [Example 109, 4-{[1-(2-acetamidophenyl)-1H-pyrazol-4-yl]methyl}-6-hydroxy-5-oxo-4,5-dihydrothieno[3,2-b]pyridine-7-carboxylic acid], the IC50 against hFEN1 fell in the range of 750 to 2250 nM. `O=C(O)c1c(O)c(=O)n(Cc2cnn(CC(=O)N3CC[C@@H](O)C3)c2)c2ccsc12` [Example 27, 6-hydroxy-4-[(1-{2-[(3R)-3-hydroxypyrrolidin-1-yl]-2-oxo-ethyl}pyrazol-4-yl)methyl]-5-oxo-thieno[3,2-b]pyridine-7-carboxylic acid] displayed a half-maximal inhibitory concentration (IC50) against hFEN1 of less than 200 nM. Turning to `Cc1nnc(Cn2c(=O)c(O)c(C(=O)O)c3sccc32)s1` [Example 94, 6-hydroxy-4-[(5-methyl-1,3,4-thiadiazol-2-yl)methyl]-5-oxo-4,5-dihydrothieno[3,2-b]pyridine-7-carboxylic acid], on hFEN1, the half-inhibitory concentration (IC50) is 250 to 750 nM. At hFEN1, `COc1cc(Cn2cc(Cn3c(=O)c(O)c(C(=O)O)c4sccc43)cn2)ccn1` [Example 129, 6-hydroxy-4-({1-[(2-methoxypyridin-4-yl)methyl]-1H-pyrazol-4-yl}methyl)-5-oxo-4,5-dihydrothieno[3,2-b]pyridine-7-carboxylic acid] returned an IC50 of less than 200 nM. Turning to `CC(C)(C)OC(=O)Nc1ccc(Cn2c(=O)c(O)c(C(=O)O)c3sccc32)cc1` [Example 15, 4-(4-((tert-butoxycarbonyl)amino)benzyl)-6-hydroxy-5-oxo-4,5-dihydrothieno[3,2-b]pyridine-7-carboxylic acid], on hFEN1, the IC50 is less than 200 nM.

The molecule `COc1cc(Cn2cc(Cn3c(=O)c(O)c(C(=O)O)c4sccc43)cn2)ccc1C#N` [Example 26, 4-{[1-(4-cyano-3-methoxybenzyl)-1H-pyrazol-4-yl]methyl}-6-hydroxy-5-oxo-4,5-dihydrothieno[3,2-b]pyridine-7-carboxylic acid] showed an IC50 on hFEN1 of less than 200 nM.

In the case of `N#Cc1cccc(Cn2c(=O)c(O)c(C(=O)O)c3sccc32)c1` [Example 58, 4-(3-cyanobenzyl)-6-hydroxy-5-oxo-4,5-dihydrothieno[3,2-b]pyridine-7-carboxylic acid], the 50% inhibitory concentration (IC50) against hFEN1 is 2250 to 10000 nM.
